The target in test [1] is T1, Recombinant human glyoxalase I (Homo sapiens, UniProt Q04760).
T1 construct: made in house; host or cells: E. coli
T1 sequence (Q04760 2-184 limits assumed): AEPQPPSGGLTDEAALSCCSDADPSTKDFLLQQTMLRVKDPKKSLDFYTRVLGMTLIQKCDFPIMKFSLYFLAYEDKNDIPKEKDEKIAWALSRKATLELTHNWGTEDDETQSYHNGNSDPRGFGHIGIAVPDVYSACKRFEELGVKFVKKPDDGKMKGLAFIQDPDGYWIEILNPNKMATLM
Briefly: Glyoxalase I inhibition assay (96-well kinetic spectrophotometric assay, 240 nm). Particulars: for IC50: concentration giving 50% of the vehicle control response; for inhibition at 20 µM: 20 μM compound, Vmax relative to control without inhibitor, pH 6.6, 25° C. The format is biochemical. An excerpt:
Glyoxalase I catalyses the formation of S-D-lactoylglutathione from the hemithioacetal that forms non-enzymatically from methylglyoxal and reduced glutathione (GSH). The standard literature assay is a cuvette-based spectrophotometric method using the product of glyoxalase I, S-D-lactoylglutathione, as the chromophore (240 nm) (Racker, J. Biol. Chem. 190, 685-686 (1951); Principato et al., Biochem International 6, 249-255 (1983)). This literature method was modified for use as a 96-well plate, kinetic assay.
The buffer (0.1M potassium phosphate buffer pH 6.6) and inhibitors are added to appropriate wells of a 96 well plate. Methylglyoxal (prepared in potassium phosphate buffer pH 6.6) and reduced glutathione (prepared in potassium phosphate buffer pH 6.6) are added to appropriate wells. These reagents are incubated for 15 minutes, shaking at room temperature to allow the formation of the hemithioacetal substrate of glyoxalase I. Recombinant human glyoxalase I (expressed in E. coli. and purified by S-hexylglutathione-agarose chromatography as described in Ridderstorm M. and Mannervik B., Biochem J. 314, 463-467 (1996)) is added and the plate is shaken briefly, before being placed in a Spectra Max 190 microplate spectrophotometer (Molecular Devices) at 25° C. Absorbance is monitored at 240 nm, with readings being taken every 30 seconds. The reaction is monitored for 15 minutes and PathCheck® measurements are taken on completion of the assay and the absorbance values normalized to a 1 cm pathlength. The integral software determines the Vmax using the first 20 readings. S-hexylglutathione is used as a positive control in the assays.
Data are expressed as a percentage of the control Vmax, measured in the absence of inhibitor.
Compounds iv, A, ix and E from examples 1 to 4 above respectively were subjected to the above glyoxalase I binding assay at a concentration of 20 μM (20 micromolar). Inhibitory effects are expressed in table 2 as either IC50 values, defined as the concentration, in μM, of the compound that results in 50% of the vehicle control response, or as the percentage of the vehicle control response at the highest concentration of compound tested.

The test system of test [2] is HL60 (human promyelocytic leukaemia) cells. Briefly: HL60 cell assay (WST-1 growth inhibition). The format is cell-based. Conditions: for IC50: concentration giving 50% of the vehicle control response; for % proliferation inhibition in HL60s: highest concentration tested (range 20-1.25 μM), mean of six replicates. The procedure: HL60 (human promyelocytic leukaemia) cells were seeded (50 μl/well) at a density between 0.25-0.4×10^5/ml in a 96 multi-well plate. Twenty four hours later 50 μl. of the relevant compound dilution made up in culture medium was added to the wells (final concentration range 20-1.25 μM in 0.1% DMSO). After incubating at 37° C. in a 5% CO2 atmosphere for a further 72 hours, assessment of growth inhibitory effects of compounds was measured using a colorimetric assay that is based on the cleavage of the tetrazolium salt WST-1 (Roche) by mitochondrial dehydrogenase in viable cells. WST-1 reagent (10 μl) was added to each well and the plate was agitated for 1 min. After a 3-4 hour incubation at 37° C. in a 5% CO2 incubator the absorbance at 450 nm was read spectrophotometrically, after subtraction of a reference wavelength absorbance, at […].
Compounds iv, ix and E from examples 1, 3 and 4 above respectively were subjected to the above cell assay. Results were the mean of six replicates and were expressed as the percentage of the DMSO vehicle control response. Inhibitory effects are expressed in table 3 in the form of either IC50 values, which was defined as the concentration (μM) of compound that results in 50% of the vehicle control response, or as the % of vehicle control response at the highest concentration of compound tested.
(In general: Formazan colour is commonly taken as a measure of viable cells.)

The mark [3] stands for this setting: Homo sapiens, HL-60, 72 hours incubation.

Bounds are passed on as bounds.

With `O=C(O)C(Sc1ccc(CN(O)C(=O)c2ccccc2)cc1)c1ccccc1` (stereo not shown) [A, {4-[(Benzoyl-hydroxy-amino)-methyl]-phenylsulfanyl)-phenyl-acetic acid], in test [1], the IC50 – broadly, the midpoint of a concentration-inhibition curve – came out at 9.7 µM.

Consider `N#Cc1c(-c2ccc(Cl)cc2)cc(-c2cccs2)nc1SC(C(=O)O)c1ccccc1` (stereo not shown) [Compound 1], for which, in test [1], the inhibition (usually how much of the control response was suppressed) at 20 µM is not below 30%.

On to `COc1ccc(-c2cc(-c3ccccc3)nc(SC(C(=O)O)c3ccccc3)c2C#N)cc1` (stereo not shown) [Compound 2], for which the inhibition at 20 µM in test [1] was not below 30%.

On to `O=C(CSc1ccccc1C(=O)O)c1ccc(-c2ccccc2)cc1` [Compound 3, 2-(2-Biphenyl-4-yl-2-oxo-ethylsulfanyl)-benzoic acid], for which the inhibition at 20 µM in test [1] was not below 30%.

For the compound `COc1ccc(-c2cc(-c3ccccc3)nc(SCc3ccccc3C(=O)O)c2C#N)cc1` [Compound 4], the inhibition at 20 µM in test [1] is not below 30%.

Take `Cc1ccc(-c2cc(-c3ccccc3)c(C#N)c(SCC(=O)Nc3ccc(C(=O)O)cc3)n2)cc1` [Compound 9]: the inhibition at 20 µM in test [1] is not below 30%.

Consider `COc1ccc(-c2cc(-c3cccs3)nc(SC(C(=O)O)c3ccccc3)c2C#N)cc1` (stereo not shown) [Compound 11], for which, in test [1], the inhibition at 20 µM is not below 30%.

Regarding `N#Cc1c(-c2cccs2)cc(-c2cccs2)nc1SC(C(=O)O)c1ccccc1` (stereo not shown) [Compound 13], in test [1], the inhibition at 20 µM is not below 30%.

With `N#Cc1c(-c2ccccc2)cc(-c2cccs2)nc1SC(C(=O)O)c1ccccc1` (stereo not shown) [Compound 14], the inhibition at 20 µM in test [1] is not below 30%.

For the compound `CC(C)C(Sc1nc(-c2ccccc2)cc(-c2ccccc2)c1C#N)C(=O)O` (stereo not shown) [Compound 25], the inhibition at 20 µM in test [1] was not below 30%.

On to `COC(=O)c1ccccc1CSc1ccc(CN(O)C(=O)c2ccccc2)cc1` [Compound ix, 2-{4-[(Benzoyl-hydroxy-amino)-methyl]-phenylsulfanylmethyl}-benzoic acid methyl ester], for which the inhibition at 20 µM in test [1] stood at 0%. This compound showed a concentration for half-maximal inhibition (IC50) in test [2] (setting [3]) of 15 µM.

In the case of `O=C(O)c1ccccc1CSc1ccc(CN(O)C(=O)c2ccccc2)cc1` [E, 2-{4-[(Benzoyl-hydroxy-amino)-methyl]-phenylsulfanylmethyl}-benzoic acid], the half-inhibitory concentration (IC50) in test [1] lay within 1.9 to 2.26 µM. For the same compound, the “% proliferation inhibition in HL60s” value in test [2] (72 hours incubation) amounted to 4%.

For `CCOC(=O)c1ccccc1SCC(=O)c1ccc(-c2ccccc2)cc1` [ethyl ester of compound 3], in test [2] (72 hours incubation), it took 7.5 µM to reach half-maximal inhibition (IC50) and the “% proliferation inhibition in HL60s” value turned out to be 72%.

For the compound `CCOC(=O)C(Sc1ccc(CN(O)C(=O)c2ccccc2)cc1)c1ccccc1` (stereo not shown) [iv, {4-[(Benzoyl-hydroxy-amino)-methyl]-phenylsulfanyl}-phenyl-acetic acid ethyl ester], the inhibition at 20 µM in test [1] was 28.5%. In test [2] (setting [3]), this compound registered a half-maximal inhibitory concentration (IC50) of 8.3 µM. Moreover, the “% proliferation inhibition in HL60s” value in test [2] (72 hours incubation) turned out to be 80%.

Values taken from patent US20070015799A1, “Glyoxalase inhibitors” (priority 2003, published 2007).
